# ChEMBL document CHEMBL1138648, “Synthesis of new N-(2-(trifluoromethyl)pyridin-4-yl)anthranilic acid derivatives and their evaluation as anticancer agents” (2004)
# Assays:
# Assay type in all cases: functional
# NCI-H460 [1] = assay: In vitro percent of proliferation of vehicle treated NCI-H460 human lung cell lines was determined at 0.0010 M concentration
# SF-268 [2] = assay: In vitro percent of proliferation of vehicle treated SF-268 human CNS cell lines was determined at 0.0010 M concentration
# MCF7 [3] = assay: In vitro percent of proliferation of vehicle treated MCF-7 human breast cell lines was determined at 0.0010 M concentration
# CAKI-1 = assay: Growth inhibitory activity against Renal cancer CAKI-1 cell line was determined; conditions: Homo sapiens
# UACC-62 = assay: Growth inhibitory activity against Melanoma UACC-62 cell line was determined; conditions: Homo sapiens
# BT-549 = assay: Growth inhibitory activity against Breast cancer BT-549 cell line was determined; conditions: Homo sapiens
# Hs-578T = assay: Growth inhibitory activity against Breast cancer HS 578T cell line was determined; conditions: Homo sapiens
# UACC-257 = assay: Growth inhibitory activity against Melanoma UACC-257 cell line was determined; conditions: Homo sapiens
# TK-10 = assay: Growth inhibitory activity against Renal cancer TK-10 cell line was determined; conditions: Homo sapiens
# SF-539 = assay: Growth inhibitory activity against CNS cancer SF-539 cell line was determined; conditions: Homo sapiens
# 786-0 = assay: Growth inhibitory activity against Renal cancer 786-0 cell line was determined; conditions: Homo sapiens
# MDA-MB-435 = assay: Growth inhibitory activity against Breast cancer MDA-MB-435 cell line was determined; conditions: Homo sapiens
# SF-268 [4] = assay: Growth inhibitory activity against CNS cancer SF-268 cell line was determined; conditions: Homo sapiens
# SW-620 = assay: Growth inhibitory activity against colon cancer SW-620 cell line was determined; conditions: Homo sapiens
# OVCAR-5 = assay: Growth inhibitory activity against Ovarian cancer OVCAR-5 cell line was determined; conditions: Homo sapiens
# EKVX = assay: Growth inhibitory activity against non small cell lung cancer EKVX cell line was determined; conditions: Homo sapiens
# SF-295 = assay: Growth inhibitory activity against CNS cancer SF-295 cell line was determined; conditions: Homo sapiens
# ACHN = assay: Growth inhibitory activity against Renal cancer ACHN cell line was determined; conditions: Homo sapiens
# HOP-92 = assay: Growth inhibitory activity against non small cell lung cancer HOP-92 cell line was determined; conditions: Homo sapiens
# CCRF-CEM = assay: Growth inhibitory activity against Leukemia CCRF-CEM cell line was determined; conditions: Homo sapiens
# SN12C = assay: Growth inhibitory activity against Renal cancer SN12C cell line was determined; conditions: Homo sapiens
# NCI-H322M = assay: Growth inhibitory activity against non small cell lung cancer NCI-H322M cell line was determined; conditions: Homo sapiens
# RPMI-8226 = assay: Growth inhibitory activity against Leukemia RPMI-8226 cell line was determined; conditions: Homo sapiens
# DU-145 = assay: Growth inhibitory activity against Prostate cancer DU-145 cell line was determined; conditions: Homo sapiens
# MDA-MB-231 = assay: Growth inhibitory activity against Breast cancer MDA-MB-231/ATCC cell line was determined; conditions: Homo sapiens
# MOLT-4 = assay: Growth inhibitory activity against Leukemia MOLT-4 cell line was determined; conditions: Homo sapiens
# HL-60 = assay: Growth inhibitory activity against Leukemia HL-60(TB) cell line was determined; conditions: Homo sapiens
# HCT-15 = assay: Growth inhibitory activity against colon cancer HCT-15 cell line was determined; conditions: Homo sapiens
# NCI-H23 = assay: Growth inhibitory activity against non small cell lung cancer NCI-H23 cell line was determined; conditions: Homo sapiens
# K562 = assay: Growth inhibitory activity against Leukemia K-562 cell line was determined; conditions: Homo sapiens
# MCF7 [5] = assay: Growth inhibitory activity against Breast cancer MCF-7 cell line was determined; conditions: Homo sapiens
# NCI-H522 = assay: Growth inhibitory activity against non small cell lung cancer H522 cell line was determined; conditions: Homo sapiens
# A549 = assay: Growth inhibitory activity against non small cell lung cancer A549/ATCC cells; conditions: Homo sapiens
# NCI-H460 [6] = assay: Growth inhibitory activity against non small cell lung cancer H460 cell line was determined; conditions: Homo sapiens
# NCI-H226 = assay: Growth inhibitory activity against non small cell lung cancer NCI-H226 cell line was determined; conditions: Homo sapiens
# KM12 = assay: Growth inhibitory activity against colon cancer KM12 cell line was determined; conditions: Homo sapiens
# HCC 2998 = assay: Growth inhibitory activity against colon cancer HCC2998 cell line was determined; conditions: Homo sapiens
# M14 = assay: Growth inhibitory activity against Melanoma M14 cell line was determined; conditions: Homo sapiens
# OVCAR-3 = assay: Growth inhibitory activity against Ovarian cancer OVCAR-3 cell line was determined; conditions: Homo sapiens
# NCI/ADR-RES = assay: Growth inhibitory activity against Breast cancer NCI/ADR-RES cell line was determined; conditions: Homo sapiens
# OVCAR-8 = assay: Growth inhibitory activity against Ovarian cancer OVCAR-8 cell line was determined; conditions: Homo sapiens
# SR = assay: Growth inhibitory activity against Leukemia SR cell line was determined; conditions: Homo sapiens
# SK-MEL-5 = assay: Growth inhibitory activity against Melanoma SK-MEL-5 cell line was determined; conditions: Homo sapiens
# PC-3 = assay: Growth inhibitory activity against Prostate cancer PC-3 cell line was determined; conditions: Homo sapiens
# A498 = assay: Growth inhibitory activity against Renal cancer A498 cell line was determined; conditions: Homo sapiens
# HCT-116 = assay: Growth inhibitory activity against colon cancer HCT116 cell line was determined; conditions: Homo sapiens
# HOP-62 = assay: Growth inhibitory activity against non small cell lung cancer HOP-62 cell line was determined; conditions: Homo sapiens
compound,measurement,setting,value
COC(=O)c1ccccc1Nc1ccnc(C(F)(F)F)c1,Proliferation,NCI-H460 [1],100%
same,Proliferation,SF-268 [2],103%
same,Proliferation,MCF7 [3],96%
COCCCNC(=O)c1ccccc1Nc1ccnc(C(F)(F)F)c1,Proliferation,NCI-H460 [1],105%
same,Proliferation,SF-268 [2],97%
same,Proliferation,MCF7 [3],70%
O=C(Nc1cccnc1)c1ccccc1Nc1ccnc(C(F)(F)F)c1,Proliferation,NCI-H460 [1],62%
same,Proliferation,SF-268 [2],98%
same,Proliferation,MCF7 [3],56%
O=C(Oc1ccc(Cl)cc1)c1ccccc1Nc1ccnc(C(F)(F)F)c1,GI50,CAKI-1,2300 nM
same,GI50,UACC-62,2600 nM
same,Proliferation,NCI-H460 [1],9%
same,GI50,BT-549,15 µM
same,GI50,Hs-578T,30 µM
same,GI50,UACC-257,4.5 µM
same,GI50,TK-10,18 µM
same,GI50,SF-539,15 µM
same,GI50,786-0,2700 nM
same,GI50,MDA-MB-435,2100 nM
same,GI50,SF-268 [4],4.4 µM
same,GI50,SW-620,6.6 µM
same,GI50,OVCAR-5,26 µM
same,GI50,EKVX,25 µM
same,GI50,SF-295,63 µM
same,GI50,ACHN,11 µM
same,GI50,HOP-92,21 µM
same,GI50,CCRF-CEM,4.9 µM
same,GI50,SN12C,3000 nM
same,GI50,NCI-H322M,17 µM
same,GI50,RPMI-8226,2900 nM
same,GI50,DU-145,19 µM
same,GI50,MDA-MB-231,1800 nM
same,GI50,MOLT-4,100 µM
same,GI50,HL-60,6.4 µM
same,GI50,HCT-15,2100 nM
same,GI50,NCI-H23,2800 nM
same,Proliferation,SF-268 [2],28%
same,GI50,K562,3.6 µM
same,GI50,MCF7 [5],3.7 µM
same,GI50,NCI-H522,4.3 µM
same,GI50,A549,15 µM
same,GI50,NCI-H460 [6],10 µM
same,GI50,NCI-H226,2900 nM
same,GI50,KM12,8.9 µM
same,GI50,HCC 2998,13 µM
same,GI50,M14,2100 nM
same,GI50,OVCAR-3,11 µM
same,GI50,NCI/ADR-RES,16 µM
same,GI50,OVCAR-8,4.1 µM
same,GI50,SR,4000 nM
same,GI50,SK-MEL-5,17000 nM
same,GI50,PC-3,17 µM
same,Proliferation,MCF7 [3],24%
COc1ccc(OC(=O)c2ccccc2Nc2ccnc(C(F)(F)F)c2)cc1,Proliferation,NCI-H460 [1],49%
same,Proliferation,SF-268 [2],105%
same,Proliferation,MCF7 [3],74%
CCOC(=O)c1ccccc1Nc1ccnc(C(F)(F)F)c1,Proliferation,NCI-H460 [1],102%
same,Proliferation,SF-268 [2],103%
same,Proliferation,MCF7 [3],98%
O=C(Nc1ccccn1)c1ccccc1Nc1ccnc(C(F)(F)F)c1,Proliferation,NCI-H460 [1],86%
same,Proliferation,SF-268 [2],94%
same,Proliferation,MCF7 [3],66%
O=C(Oc1ccc(Cl)cc1Cl)c1ccccc1Nc1ccnc(C(F)(F)F)c1,GI50,CAKI-1,2100 nM
same,GI50,UACC-62,2300 nM
same,Proliferation,NCI-H460 [1],1%
same,GI50,BT-549,6.8 µM
same,GI50,Hs-578T,25 µM
same,GI50,UACC-257,11 µM
same,GI50,TK-10,4.1 µM
same,GI50,SF-539,3.8 µM
same,GI50,786-0,1900 nM
same,GI50,MDA-MB-435,2900 nM
same,GI50,SF-268 [4],3.1 µM
same,GI50,SW-620,4.6 µM
same,GI50,OVCAR-5,7.9 µM
same,GI50,EKVX,19 µM
same,GI50,SF-295,15 µM
same,GI50,ACHN,13 µM
same,GI50,HOP-92,12 µM
same,GI50,CCRF-CEM,3.5 µM
same,GI50,SN12C,3000 nM
same,GI50,A498,21 µM
same,GI50,NCI-H322M,14 µM
same,GI50,RPMI-8226,2400 nM
same,GI50,DU-145,16 µM
same,GI50,MDA-MB-231,2200 nM
same,GI50,MOLT-4,100 µM
same,GI50,HL-60,6.6 µM
same,GI50,HCT-15,2200 nM
same,GI50,NCI-H23,3500 nM
same,Proliferation,SF-268 [2],9%
same,GI50,K562,3 µM
same,GI50,MCF7 [5],3.6 µM
same,GI50,NCI-H522,4.6 µM
same,GI50,A549,11 µM
same,GI50,NCI-H460 [6],4.3 µM
same,GI50,NCI-H226,3400 nM
same,GI50,KM12,3.7 µM
same,GI50,HCC 2998,3.2 µM
same,GI50,M14,1900 nM
same,GI50,OVCAR-3,11 µM
same,GI50,NCI/ADR-RES,3.6 µM
same,GI50,OVCAR-8,4.8 µM
same,GI50,SR,770 nM
same,GI50,SK-MEL-5,2800 nM
same,GI50,PC-3,8.3 µM
same,Proliferation,MCF7 [3],3%
CSc1ccc(OC(=O)c2ccccc2Nc2ccnc(C(F)(F)F)c2)cc1,Proliferation,NCI-H460 [1],68%
same,Proliferation,SF-268 [2],81%
same,Proliferation,MCF7 [3],80%
O=C(Nc1ccncc1)c1ccccc1Nc1ccnc(C(F)(F)F)c1,Proliferation,NCI-H460 [1],99%
same,Proliferation,SF-268 [2],96%
same,Proliferation,MCF7 [3],79%
O=C(Oc1cccc(Cl)c1)c1ccccc1Nc1ccnc(C(F)(F)F)c1,GI50,CAKI-1,2100 nM
same,GI50,UACC-62,2000 nM
same,Proliferation,NCI-H460 [1],3%
same,GI50,BT-549,6.8 µM
same,GI50,Hs-578T,21 µM
same,GI50,TK-10,85 µM
same,GI50,SF-539,2.8 µM
same,GI50,786-0,3500 nM
same,GI50,MDA-MB-435,3000 nM
same,GI50,SF-268 [4],3 µM
same,GI50,SW-620,4.4 µM
same,GI50,OVCAR-5,14 µM
same,GI50,EKVX,22 µM
same,GI50,SF-295,18 µM
same,GI50,HOP-92,8.7 µM
same,GI50,CCRF-CEM,0.89 µM
same,GI50,SN12C,3000 nM
same,GI50,NCI-H322M,23 µM
same,GI50,RPMI-8226,1800 nM
same,GI50,DU-145,14 µM
same,GI50,MDA-MB-231,1700 nM
same,GI50,MOLT-4,0.93 µM
same,GI50,HL-60,13 µM
same,GI50,HCT-15,3700 nM
same,GI50,NCI-H23,2400 nM
same,Proliferation,SF-268 [2],5%
same,GI50,K562,3.2 µM
same,GI50,MCF7 [5],4.8 µM
same,GI50,NCI-H522,4.2 µM
same,GI50,A549,18 µM
same,GI50,NCI-H460 [6],11 µM
same,GI50,NCI-H226,2100 nM
same,GI50,KM12,9.5 µM
same,GI50,HCC 2998,3.5 µM
same,GI50,M14,1800 nM
same,GI50,OVCAR-3,3.8 µM
same,GI50,HCT-116,1600 nM
same,GI50,NCI/ADR-RES,2.2 µM
same,GI50,OVCAR-8,3.5 µM
same,GI50,SR,440 nM
same,GI50,SK-MEL-5,2600 nM
same,GI50,PC-3,7.4 µM
same,GI50,HOP-62,25 µM
same,Proliferation,MCF7 [3],12%
O=C(O)c1ccccc1Nc1ccnc(C(F)(F)F)c1,Proliferation,NCI-H460 [1],100%
same,Proliferation,SF-268 [2],102%
same,Proliferation,MCF7 [3],105%
